According to patent US20120135995A1, “FUNGICIDAL DIPHENYL-SUBSTITUTED PYRIDAZINES” (E.I. Dupont de Nemours and Company, priority 2009, published 2012):
Marks after values point to notes of the source that are not given here.

Columns and labels:
Type in all cases: in vivo
Septoria nodorum = assay: Test C: wheat seedlings sprayed, next day inoculated with Septoria nodorum (wheat glume blotch), visual disease rating; conditions: sprayed day before inoculation; for pest or weed control at 200 ppm: Parastagonospora nodorum
Text: (§1) General protocol for preparing test suspensions for Tests A-F: the test compounds were first dissolved in acetone in an amount equal to 3% of the final volume and then suspended at the desired concentration (in ppm) in acetone and purified water (50/50 mix) containing 250 ppm of the surfactant Trem® 014 (polyhydric alcohol esters). The resulting test suspensions were then used in Tests A-F. Spraying a 200 ppm test suspension to the point of run-off on the test plants was the equivalent of a rate of 500 g/ha. An asterisk “*” next to the rating value indicates a 40 ppm test suspension.
(§2) The test suspension was sprayed to the point of run-off on wheat seedlings. The following day the seedlings were inoculated with a spore suspension of Septoria nodorum (the causal agent of wheat glume blotch) and incubated in a saturated atmosphere at 24° C. for 48 h, and then moved to a growth chamber at 20° C. for 6 days, after which time visual disease ratings were made.
(§3) Results for Tests A-F are given in Table A. In the Table, a rating of 100 indicates 100% disease control and a rating of 0 indicates no disease control (relative to the controls). A dash (-) indicates no test results. All results are for 200 ppm except where followed by “*”, which indicates 40 ppm.

[1] = test system: Puccinia recondita f. sp. tritici; assay: Test E1: wheat seedlings inoculated with Puccinia recondita f. sp. tritici (wheat leaf rust), sprayed afterwards, visual disease rating; conditions: sprayed after inoculation; for pest or weed control at 200 ppm: Puccinia recondita
Text: as §1
Wheat seedlings were inoculated with a spore suspension of Puccinia recondita f. sp. tritici (the causal agent of wheat leaf rust) and incubated in a saturated atmosphere at 20° C. for 24 h, and then moved to a growth chamber at 20° C. for 2 days. At the end of this time the test suspension was sprayed to the point of run-off on the wheat seedlings, and then the seedlings were moved to a growth chamber at 20° C. for 6 days, after which time visual disease ratings were made.
as §3

Septoria tritici = assay: Test D: wheat seedlings sprayed, next day inoculated with Septoria tritici (wheat leaf blotch), visual disease rating; conditions: sprayed day before inoculation; for pest or weed control at 200 ppm: Zymoseptoria tritici
Text: as §1
as §2, with “tritici” for “nodorum”, “leaf” for “glume”, “in” for “in a”, “19” for “6”
as §3

Erysiphe graminis = assay: Test F: wheat seedlings sprayed, next day inoculated with Erysiphe graminis (wheat powdery mildew), visual disease rating; conditions: sprayed day before inoculation; for pest or weed control at 200 ppm: Blumeria graminis
Text: as §1
The test suspension was sprayed to the point of run-off on wheat seedlings. The following day the seedlings were inoculated with a spore dust of Erysiphe graminis, (the causal agent of wheat powdery mildew) and incubated in a growth chamber at 20° C. for 8 days, after which time visual disease ratings were made.
as §3

Alternaria solani = assay: Test B: tomato seedlings sprayed, next day inoculated with Alternaria solani (tomato early blight), visual disease rating; conditions: sprayed day before inoculation; for pest or weed control at 200 ppm: Alternaria solani
Text: as §1
as §2, with “tomato” for “wheat”, “Alternaria solani” for “Septoria nodorum”, “tomato early blight)” for “wheat glume blotch)”, “27°” for “24°”, “5” for “6”
as §3

Botrytis cinerea = assay: Test A: tomato seedlings sprayed, next day inoculated with Botrytis cinerea (tomato Botrytis), visual disease rating; conditions: sprayed day before inoculation; for pest or weed control at 200 ppm: Botrytis cinerea
Text: as §1
The test suspension was sprayed to the point of run-off on tomato seedlings. The following day the seedlings were inoculated with a spore suspension of Botrytis cinerea (the causal agent of tomato Botrytis) and incubated in saturated atmosphere at 20° C. for 48 h, and then moved to a growth chamber at 24° C. for 3 days, after which time visual disease ratings were made.
as §3

[2] = test system: Puccinia recondita f. sp. tritici; assay: Test E2: wheat seedlings sprayed, next day inoculated with Puccinia recondita f. sp. tritici (wheat leaf rust), visual disease rating; conditions: sprayed day before inoculation; for pest or weed control at 200 ppm: Puccinia recondita
Text: as §1
The test suspension was sprayed to the point of run-off on wheat seedlings. The following day the seedlings were inoculated with a spore suspension of Puccinia recondita f. sp. tritici (the causal agent of wheat leaf rust) and incubated in a saturated atmosphere at 20° C. for 24 h, and then moved to a growth chamber at 20° C. for 7 days, after which time visual disease ratings were made.
as §3

Structure (SMILES) | Test C rating (disease control) (Septoria nodorum; 200 ppm test suspension) [%] | Test E1 rating (disease control) ([1]; 200 ppm test suspension) [%] | Test D rating (disease control) (Septoria tritici; 200 ppm test suspension) [%] | Test F rating (disease control) (Erysiphe graminis; 200 ppm test suspension) [%] | Test B rating (disease control) (Alternaria solani; 200 ppm test suspension) [%] | Test A rating (disease control) (Botrytis cinerea; 200 ppm test suspension) [%] | Test E2 rating (disease control) ([2]; 200 ppm test suspension) [%] | further results
COc1cc(OC)c(Cl)c(-c2c(C)nnc(Cl)c2-c2c(F)cccc2Cl)c1 [Compound 41] | 0 | 86 | 100 | 100 | 99 | 99 | 100 | 
COc1cc(OC)c(Cl)c(-c2c(C)nnc(Cl)c2-c2ccc(F)cc2F)c1 [Compound 44] | 64 | 96 | 100 | 100 | 99 | 66 | 100 | 
COc1cc(OC)c(Cl)c(-c2c(C)nnc(C)c2-c2c(F)cccc2Cl)c1 [Compound 43] | 99 | 0 | 100 | 100 | 82 | 62 | 100 | 
COc1cc(OC)cc(-c2c(C)nnc(Cl)c2-c2ccc(F)cc2F)c1 [Compound 32] | 78 | 0 | 99 | 89 | 99 | 99 | 99 | 
COc1cc(OC)cc(-c2c(C)nnc(C)c2-c2ccc(F)cc2F)c1 [Compound 40] | 97 | 0 | 100 | 95 | 99 | 100 | 100 | 
COc1cc(OC)c(Cl)c(-c2c(C)nnc(Cl)c2-c2ccc(F)cc2Cl)c1 [Compound 53] | 98 | 98 |  | 100 | 99 | 99 | 100 | 
COc1cc(OC)cc(-c2c(C(C)C)nnc(Cl)c2-c2c(F)cc(F)cc2F)c1 [Compound 16] | 92 | 100 | 99 | 100 | 99 | 99 | 100 | 
COc1cc(-c2c(C)nnc(C)c2-c2ccc(F)cc2F)cc(OC)c1Cl [Compound 50] | 100 | 100 |  | 100 | 100 |  | 100 | 
COc1cc(-c2c(C)nnc(Cl)c2-c2ccc(F)cc2F)cc(OC)c1Cl [Compound 45] | 97 | 100 | 100 | 100 | 100 | 100 | 100 | 
COc1cc(OC)cc(-c2c(CC#N)nnc(Cl)c2-c2c(F)cccc2F)c1 [Compound 27, 6-chloro-5-(2,6-difluorophenyl)-4-(3,5-dimethoxyphenyl)-3-pyridazine-acetonitrile] |  |  |  |  |  |  |  | pest or weed control at 200 ppm (Septoria nodorum; 200 ppm test suspension): 100%; pest or weed control at 200 ppm ([1]; 200 ppm test suspension): 0%; pest or weed control at 200 ppm (Septoria tritici; 200 ppm test suspension): 100%; pest or weed control at 200 ppm (Erysiphe graminis; 200 ppm test suspension): 98%; pest or weed control at 200 ppm (Alternaria solani; 200 ppm test suspension): 99%; pest or weed control at 200 ppm (Botrytis cinerea; 200 ppm test suspension): 100%; pest or weed control at 200 ppm ([2]; 200 ppm test suspension): 100%
COc1cc(OC)cc(-c2c(C)nnc(Cl)c2-c2ccc(F)cc2Cl)c1 [Compound 48] | 0 | 0 |  | 97 | 100 |  | 99 | 
COc1cc(OC)c(Cl)c(-c2c(C)nnc(Cl)c2-c2c(F)cccc2Cl)c1Cl [Compound 42] | 0 | 0 | 60 | 42 | 0 | 0 | 89 | 
COc1cc(OC)cc(-c2cnnc(Cl)c2-c2c(F)cc(F)cc2F)c1 [Compound 5, 3-chloro-5-(3,5-dimethoxyphenyl)-4-(2,4,6-trifluorophenyl)pyridazine] |  |  |  |  |  |  |  | pest or weed control at 200 ppm (Septoria nodorum; 200 ppm test suspension): 100%; pest or weed control at 200 ppm ([1]; 200 ppm test suspension): 99%; pest or weed control at 200 ppm (Septoria tritici; 200 ppm test suspension): 98%; pest or weed control at 200 ppm (Erysiphe graminis; 200 ppm test suspension): 100%; pest or weed control at 200 ppm (Alternaria solani; 200 ppm test suspension): 100%; pest or weed control at 200 ppm (Botrytis cinerea; 200 ppm test suspension): 99%; pest or weed control at 200 ppm ([2]; 200 ppm test suspension): 100%
COc1cc(OC)cc(-c2c(C)nnc(C)c2-c2ccc(F)cc2Cl)c1 [Compound 52] | 87 | 9 |  | 99 | 94 | 99 | 100 | 
COc1cc(OC)cc(-c2c(C)nnc(F)c2-c2ccc(F)cc2F)c1 [Compound 46] | 84 | 0 | 100 | 98 | 100 | 99 | 98 | 
COc1cc(OC)cc(-c2c(C(C)C)nnc(C)c2-c2c(F)cc(F)cc2F)c1 [Compound 18] | 82 | 100 | 99 | 100 | 99 | 100 | 100 | 
COc1ccc(-c2c(C)nnc(C(C)(C)O)c2-c2cc(OC)cc(OC)c2)cc1 [Compound 19] |  |  |  |  |  |  |  | Test C rating (disease control) (Septoria nodorum; 40 ppm test suspension (*)): 0* %; Test E1 rating (disease control) ([1]; 40 ppm test suspension (*)): 0* %; Test D rating (disease control) (Septoria tritici; 40 ppm test suspension (*)): 97* %; Test F rating (disease control) (Erysiphe graminis; 40 ppm test suspension (*)): 27* %; Test B rating (disease control) (Alternaria solani; 40 ppm test suspension (*)): 99* %; Test A rating (disease control) (Botrytis cinerea; 40 ppm test suspension (*)): 84* %; Test E2 rating (disease control) ([2]; 40 ppm test suspension (*)): 96* %
COc1cc(OC)cc(-c2c(C)nnc(C)c2-c2c(F)cccc2Cl)c1 [Compound 39] | 99 | 99 | 100 | 98 | 99 | 100 | 100 | 
COc1cc(OC)c(Cl)c(-c2c(C)nnc(F)c2-c2ccc(F)cc2F)c1 [Compound 51] | 0 | 0 |  | 99 | 100 | 99 | 100 | 
COc1cc(OC)c(Cl)c(-c2c(C)nnc(C)c2-c2ccc(F)cc2F)c1 [Compound 49] | 99 | 100 |  | 100 | 99 |  | 100 | 
COc1cc(OC)cc(-c2c(C)nnc(F)c2-c2c(F)cccc2Cl)c1 [Compound 47] | 99 | 100 |  | 99 | 100 |  | 99 | 
